ChEMBL document CHEMBL3352293, “Exploring in vitro and in vivo Hsp90 inhibitors activity against human protozoan parasites” (Bioorg Med Chem Lett, 2015)
Active and inactive are the calls of the source. The calls are words filed in the database; no cut-off is given here.

Columns and labels:
L6 = assay: Cytotoxicity against rat L6 cells; format: cell-based
[1] = test system: Trypanosoma brucei rhodesiense; assay: Antitrypanosomal activity against Trypanosoma brucei rhodesiense assessed as growth inhibition; format: functional, organism-based
Trypanosoma cruzi = assay: Antitrypanosomal activity against Trypanosoma cruzi assessed as growth inhibition; format: functional, organism-based
Plasmodium falciparum = assay: Antiplasmodial activity against Plasmodium falciparum assessed as growth inhibition; format: functional, organism-based
Giardia intestinalis = assay: Antiprotozoal activity against Giardia lamblia assessed as growth inhibition; format: functional, organism-based; conditions: Giardia duodenalis
Mus musculus = assay: Toxicity in mouse infected with Trypanosoma brucei rhodesiense assessed as death at 50 mg/kg, ip qd after 2 administeration; format: organism-based; parameters: dose 50 mg/kg, route intraperitoneal; conditions: in vivo
[2] = test system: Trypanosoma brucei rhodesiense; assay: In vivo […] activity against Trypanosoma brucei rhodesiense infected mouse model assessed as clear parasitaemia at 50 mg/kg, ip qd after 4 days; format: functional, organism-based; parameters: dose 50 mg/kg
[3] = test system: Trypanosoma brucei rhodesiense; assay: Antitrypanosomal activity against Trypanosoma brucei rhodesiense infected mouse model assessed as clear parasitaemia at 50 mg/kg, ip qd for 4 days measured on day 11; format: functional, organism-based; parameters: dose 50 mg/kg
[4] = test system: Trypanosoma brucei rhodesiense; assay: Antitrypanosomal activity against Trypanosoma brucei rhodesiense infected mouse model assessed as clear parasitaemia at 50 mg/kg, ip qd for 4 days measured on day 9; format: functional, organism-based; parameters: dose 50 mg/kg

Row | SMILES | IC50 [1] | IC50 (Trypanosoma cruzi) | IC50 (L6) | IC50 (Plasmodium falciparum) | IC50 (Giardia intestinalis) | Activity (Mus musculus) | Activity [2] | Activity [3] | Activity [4]
1 | CCNC(=O)c1nnn(-c2cc(C(C)C)c(O)cc2O)c1-c1ccc(CNCN2CCOCC2)cc1 | 4 nM | 17500 nM | 264 nM | 4 nM | 4460 nM | Toxic | – | – | –
2 | COc1cc([C@@H]2c3cc4c(cc3[C@H](O)[C@H]3COC(=O)[C@H]23)OCO4)cc(OC)c1OC [PODOFILOX] | – | – | 5 nM | – | – | – | – | – | –
3 | O=C(Cn1ccnc1[N+](=O)[O-])NCc1ccccc1 [BENZNIDAZOLE] | – | 409 nM | – | – | – | – | – | – | –
4 | CCNC(=O)c1noc(-c2cc(C(C)C)c(O)cc2O)c1NC(=O)C1CCC(OC)CC1 (centres undefined) | 4 nM | 2700 nM | 15 nM | 12 nM | 8110 nM | – | – | – | –
5 | Nc1nc(N)nc(Nc2ccc([As]3SCC(CO)S3)cc2)n1 (centres undefined) [MELARSOPROL] | 3 nM | – | – | – | – | – | – | – | –
6 | Cc1ncc([N+](=O)[O-])n1CCO [METRONIDAZOLE] | – | – | – | – | 580 nM | – | – | – | –
7 | CCNC(=O)c1noc(-c2cc(C(C)C)c(O)cc2O)c1NC(=O)[C@H]1CC[C@H](CNS(=O)(=O)c2ccc(F)cc2)CC1 | 126 nM | 4200 nM | 888 nM | 117 nM | 7570 nM | – | – | – | –
8 | CCOC(=O)c1noc2c1CN(C(=O)c1cc(C(C)C)c(O)cc1O)CC2 | 52400 nM | 616 nM | 563 nM | 7260 nM | 2460 nM | – | – | – | –
9 | CCNC(=O)c1noc(-c2cc(C(C)C)c(O)cc2O)c1NC(=O)[C@@H]1CC[C@H](C(=O)OC)C1 | 763 nM | 1460 nM | 40 nM | 26 nM | 6430 nM | – | – | – | –

Now from value to compound, other results behind:

Row | IC50 [1] | IC50 (Trypanosoma cruzi) | SMILES | IC50 (L6) | IC50 (Plasmodium falciparum) | IC50 (Giardia intestinalis) | Activity (Mus musculus) | Activity [2] | Activity [3] | Activity [4]
10 | 1 nM | 27 nM | CCNC(=O)c1nnn(-c2cc(C(C)C)c(O)cc2O)c1-c1ccc(CN2CCOCC2)cc1 | 2 nM | 1 nM | 67 nM | – | – | – | –
11 | 12 nM | 1380 nM | CCNC(=O)c1noc(-c2cc(C(C)C)c(O)cc2O)c1NC(=O)c1ccco1 | 25 nM | 17 nM | 2360 nM | – | – | – | –
12 | 971 nM | 996 nM | CCNC(=O)c1noc2c1CN(C(=O)c1cc(C(C)C)c(O)cc1O)CC2 | 110 nM | 4520 nM | 4360 nM | – | – | – | –
13 | 10 nM | 8060 nM | CCNC(=O)c1noc(-c2cc(C(C)C)c(O)cc2O)c1NC(=O)c1cc(CN2CCOCC2)on1 | 279 nM | 36 nM | 12800 nM | – | – | – | –
14 | 3 nM | 4960 nM | CCNC(=O)c1nnn(-c2cc(C(C)C)c(O)cc2O)c1-c1ccc(Cn2ccnc2)cc1 | 11 nM | 1 nM | 400 nM | – | – | – | –
15 | 1 nM | 728 nM | CCNC(=O)c1nnn(-c2cc(C(C)C)c(O)cc2O)c1-c1ccc(CC2CCCC2)cc1 | 8 nM | 2 nM | 356 nM | – | – | – | –
16 | 14 nM | 435 nM | CCNC(=O)c1noc(-c2cc(C(C)C)c(O)cc2O)c1NC(=O)c1ccc(OC)cc1 | 7 nM | 29 nM | 3190 nM | – | – | – | –
17 | 22 nM | 16700 nM | CCNC(=O)c1noc(-c2cc(C(C)C)c(O)cc2O)c1NC(=O)CCN1CCOCC1 | 146 nM | 37 nM | 983 nM | – | Active | Active | –
18 | 18 nM | 554 nM | CCNC(=O)c1noc(-c2cc(C(C)C)c(O)cc2O)c1NC(=O)c1cc(CC)on1 | 20 nM | 35 nM | 4060 nM | – | – | – | –
19 | 18 nM | 6590 nM | CCNC(=O)c1noc(-c2cc(C(C)C)c(O)cc2O)c1NC(=O)c1ccc(CN2CCOCC2)cc1 | 201 nM | 25 nM | 9740 nM | – | Active | – | Active
